Patent US5624917A, “Method of inhibiting squalene synthetase” (Takeda Chemical Industries, Ltd., priority 1991, dated 1997)

Columns and labels:
cholesterol biosynthesis = assay: Cholesterol biosynthesis inhibitory activity: cholesterol synthesis from [2-14C] acetic acid in rat liver slices; assay type: cell-based; details: for effect on cholesterol synthesis from [2-14C] acetic acid (in words): 20 μM; for activity at 20 µM: 37° C., 2 hours, No addition = 100 ± 0
Protocol: (§1) Squalene synthetase inhibitory activity and cholesterol biosynthesis inhibitory activity of the compounds used in the present invention were determined by the following method.
Determination of cholesterol biosynthesis Inhibitory activity
The liver was excised from Sprague-Dawley rat (6 weeks old, male) under full feeding and sliced into 500 μm in thickness. The slices of liver (150-200 mg) and KHB buffer solution (1 ml) containing 0.5 μCi [2-^14 C] acetic acid and various concentrations of test compounds were incubated at 37° C. for 2 hours. Cholesterol was extracted from the reaction mixture. The amount of cholesterol synthesized from the labeled acetic acid was measured, and the inhibitory ratio was calculated in comparison with the synthesized amount in the case of no addition of the test compounds.
The effect of Compound No. 22 (Example 39 described in Japanese Patent Application No. 3-151484) (added in 20 μM), 67, 74 and 75 on cholesterol synthesis from [2-^14 C] acetic acid in assay using liver slices of rats was observed.

squalene synthetase [1] = target: T1, squalene synthetase (Rattus norvegicus, UniProt Q02769); assay: Squalene synthetase inhibitory activity, rat enzyme (rat liver microsome fraction); assay type: biochemical; details: 5 μM [1-3H]farnesylpyrophosphoric acid, pH 7.4, 37° C., 45 minutes, read-out: IC50, squalene synthetase inhibitory activity, Rat enzyme
T1 construct: from tissue; host or cells: liver of male SD rats (microsome fraction)
T1 sequence (Q02769 1-416): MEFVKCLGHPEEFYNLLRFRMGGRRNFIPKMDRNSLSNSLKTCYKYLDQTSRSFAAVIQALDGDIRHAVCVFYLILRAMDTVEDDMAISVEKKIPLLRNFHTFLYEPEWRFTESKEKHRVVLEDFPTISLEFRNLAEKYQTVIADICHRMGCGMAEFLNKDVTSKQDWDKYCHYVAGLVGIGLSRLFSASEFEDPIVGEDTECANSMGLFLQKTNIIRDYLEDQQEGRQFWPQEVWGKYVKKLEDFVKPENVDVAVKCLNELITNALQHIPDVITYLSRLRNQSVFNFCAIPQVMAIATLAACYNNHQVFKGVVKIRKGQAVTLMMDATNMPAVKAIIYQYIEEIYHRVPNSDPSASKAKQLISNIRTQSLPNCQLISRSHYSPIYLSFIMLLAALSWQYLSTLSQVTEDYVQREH
Protocol: as §1
(§2) Determination of squalene synthetase inhibitory activity
(§3) The squalene synthetase inhibitory activity was determined as follows by using the enzyme solutions shown in Experiments 1 and 2 below.
(§4) Each enzyme solution (Protein: 0.8 μg) prepared in Experiments 1 and 2 was added to a solution (total amount: 50 μl) containing 5 μM[1-^3 H]farnesylpyrophosphoric acid (Specific activity 25 μCi/μmole), 1 mM NADPH, 5 mM MgCl2, 6 mM glutathione, 100 mM potassium phosphate buffer (pH 7.4) and a drug to be tested (which was added as a solution thereof in water or DMSO). The mixture was allowed to react at 37° C. for 45 minutes. A mixture (150 μl) of chloroform and methanol (1:2) was added to stop the reaction. Then, chloroform (50 μl) and 3N sodium hydroxide solution (50 μl) were added. The chloroform layer (under layer, 50 μl) containing the reaction products in which the major component was squalene was mixed with toluene liquid scintillator (3 ml). The radioactivity was measured with a liquid scintillation counter.
(§5) The squalene synthetase inhibitory activity is indicated by the concentration (IC50, molarity(M)) which inhibits the radioactivity incorporated into the chloroform layer by 50%.
Preparation of rat enzyme
SD-Male rats (6 weeks old) were bled to death followed by removal of liver. The liver (ca. 10 g) was washed with ice-cooled physiological saline, homogenized in an ice-cooled buffer solution (15 ml) [100 mM potassium phosphate (pH 7.4), 15 mM nicotinamide, 2 mM MgCl2 ] and centrifuged at 10,000×g for 20 minutes (4° C.). The resulting supernatant was further centrifuged at 105,000×g for 90 minutes (4° C.). Then, the deposit was suspended in an ice-cooled 100 mM potassium phosphate buffer solution (pH 7.4) and centrifuged at 105,000×g for 90 minutes (4° C.) again. The deposit (microsome fraction) thus obtained was suspended in an ice-cooled 100 mM potassium phosphate buffer solution (pH 7.4) so that the protein concentration became about 40 mg/ml (measured with BCA Protein Assay Kit (Pias)), and the suspension was used as the enzyme solution.

squalene synthetase [2] = target: T2, squalene synthetase (Homo sapiens, UniProt P37268); assay: Squalene synthetase inhibitory activity, human enzyme (HepG2 microsome fraction); assay type: biochemical; details: human hepatoma HepG2 microsome fraction; 5 μM [1-3H]farnesylpyrophosphoric acid, pH 7.4, 37° C., 45 minutes; read-out: IC50, squalene synthetase inhibitory activity, Human enzyme
T2 construct: From the resulting sonicate, microsome fraction was obtained according to the same manner as that described in Experiment 1; endogenous in cells; host or cells: HepG2 human hepatoma cells (microsome fraction)
T2 sequence (P37268 1-417): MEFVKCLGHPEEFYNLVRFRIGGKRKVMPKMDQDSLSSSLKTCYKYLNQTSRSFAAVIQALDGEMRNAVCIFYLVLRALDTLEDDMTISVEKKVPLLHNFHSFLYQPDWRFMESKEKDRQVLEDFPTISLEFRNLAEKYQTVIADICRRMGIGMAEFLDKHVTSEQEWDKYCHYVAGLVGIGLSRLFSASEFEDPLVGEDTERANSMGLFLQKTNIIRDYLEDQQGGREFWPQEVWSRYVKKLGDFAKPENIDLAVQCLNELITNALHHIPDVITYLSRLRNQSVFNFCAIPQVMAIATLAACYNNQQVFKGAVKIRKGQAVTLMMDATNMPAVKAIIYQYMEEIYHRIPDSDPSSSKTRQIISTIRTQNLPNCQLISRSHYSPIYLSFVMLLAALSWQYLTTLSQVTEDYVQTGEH
Protocol: as §1, §2, §3, §4, §5
Preparation of human enzyme
Cultivation was carried out on Dulbecco modified Eagle medium containing 10% bovine fetal serum in the presence of 5% CO2 at 37° C. The human hepatoma cells HepG2 (ca. 1×10^9 cells) were suspended in an ice-cooled buffer solution (10 ml) [100 mM potassium phosphate (pH 7.4), 30 mM nicotinamide, 2.5 mM MgCl2 ], and the cells were crushed by ultrasonication (30 seconds, twice). From the resulting sonicate, microsome fraction was obtained according to the same manner as that described in Experiment 1. This microsome fraction was suspended in an ice-cooled 100 mM potassium phosphate buffer solution (pH 7.4) so that the protein concentration became about 4 mg/ml, and this suspension was used as the enzyme liquid.

Compound | effect on cholesterol synthesis from [2-14C] acetic acid (in words) (cholesterol biosynthesis) | activity at 20 µM (cholesterol biosynthesis) | IC50 (squalene synthetase [1]) | IC50 (squalene synthetase [2])
O=P(O)(O)C(NCCCCCCSc1ccccc1)P(=O)(O)O [compound 22] | significant inhibition of cholesterol biosynthesis | 52.9 ± 10% |  | 
COc1ccc(CSCCCCCCNC(P(=O)(O)O)P(=O)(O)O)cc1 [compound 67] | significant inhibition of cholesterol biosynthesis | 43.4 ± 5% | 8.7 nM | 9.3 nM
O=P(O)(O)C(NCCCCCCSc1nccs1)P(=O)(O)O [compound 74] | significant inhibition of cholesterol biosynthesis | 35.8 ± 0.8% |  | 
Cc1nnc(SCCCCCCNC(P(=O)(O)O)P(=O)(O)O)s1 [compound 75] | significant inhibition of cholesterol biosynthesis | 50 ± 7.9% |  | 
CC(C)=CCC/C(C)=C/CC/C(C)=C/CC(P(=O)(O)O)P(=O)(O)O [compound 106, trisodium (E,E)-farnesylmethylenebisphosphonate] |  |  | 62 nM | 110 nM
(E,E)-farnesylaminomethylenebisphosphonic acid diethyl ester disodium salt [Compound No. 112] |  |  | 3300 nM | 8200 nM
